{"source": "paper PMC5802399", "about": "(Nature, 2017)", "key": {"[1]": {"format": "physicochemical", "conditions": "pH 7.4"}, "H1N1 CA09 virus [2]": {"tested_on": "H1N1 CA09 virus", "set-up": "species or system BALB/c mice", "conditions": "mouse, in vivo"}, "[3]": {"format": "physicochemical", "conditions": "pH 7.4", "remark": "listed apart in the source"}, "H1N1 CA09 virus [4]": {"tested_on": "H1N1 CA09 virus", "set-up": "species or system BALB/c mice", "conditions": "mouse, in vivo", "remark": "listed apart in the source"}, "[5]": {"tested_on": "CA09 influenza virus (H1N1)", "format": "cell-based, Influenza A H1N1"}, "HK/X31 (H3N2), group 2": {"tested_on": "HK/X31 (H3N2), group 2", "format": "cell-based, Influenza A"}, "PR8 influenza virus": {"tested_on": "PR8 influenza virus", "format": "cell-based, Influenza A H1N1"}, "[6]": {"tested_on": "group-1 influenza strains (H1N1, H5N1 and H6N2)", "format": "cell-based, Influenza A"}}, "note": "Read-outs that look alike come from different tables or passages of the source. Bridge positions count the residues as written; N and C are the ends. Ends that are not written are not given here. Peptide text beside a SMILES is read from it."}
{"compound": "TSRVRATSKFAALIAAEIAREFGYTVDVQEVNGQWEVTFD [HB1.5702.2]", "values": [{"measurement": "Tm", "setting": "[1]", "value": 72, "unit": "°C"}]}
{"compound": "TSGVRATSKFAALIAAEIAREFGYTVDVQEKNGEWRVVFD [HB1.5702.3.3]", "values": [{"measurement": "Tm", "setting": "[1]", "value": 70, "unit": "°C"}]}
{"compound": "HB1.6394.2: chemically synthesized HA binder containing disulfides (CQEYRFTNPFACQIALEILRDFGYACTVQTINGECRVRCC; disulfide (positions not given here))", "values": [{"measurement": "degradation by trypsin", "setting": "trypsin", "value": "no degradation"}]}
{"compound": "CC[C@H](C)[C@@H]1NC(=O)[C@H](CCC(=O)O)NC(=O)[C@H](C)NC(=O)[C@H](C)NC(=O)[C@H]([C@@H](C)O)NC(=O)[C@H](CCC(N)=O)NC(=O)[C@@H]2CSSC[C@H](NC(=O)[C@H](CC(N)=O)NC(=O)CNC(=O)[C@H](CC(N)=O)NC(=O)[C@H](CC(=O)O)NC(=O)[C@H](C(C)C)NC(=O)[C@H](CCSC)NC(=O)[C@H]([C@@H](C)CC)NC(=O)[C@H](CCCCN)NC(=O)[C@H](C(C)C)NC(=O)[C@H]([C@@H](C)O)NC(=O)[C@H](Cc3ccc(O)cc3)NC(=O)CNC(=O)[C@H](Cc3ccccc3)NC(=O)[C@H](C)NC(=O)[C@H](CCCNC(=N)N)NC(=O)[C@H](Cc3c[nH]c4ccccc34)NC1=O)C(=O)N[C@@H](CCCNC(=N)N)C(=O)N[C@@H](CC(C)C)C(=O)N[C@@H](Cc1c[nH]cn1)C(=O)N[C@@H](C(C)C)C(=O)N[C@H](C(=O)O)CSSC[C@H](N)C(=O)N[C@@H]([C@@H](C)CC)C(=O)N[C@@H](CCC(=O)O)C(=O)N[C@@H](CCC(N)=O)C(=O)N[C@@H](CO)C(=O)N[C@@H](Cc1ccccc1)C(=O)N[C@@H]([C@@H](C)O)C(=O)N[C@@H]([C@@H](C)O)C(=O)N[C@@H](CC(C)C)C(=O)N[C@@H](Cc1ccccc1)C(=O)N[C@@H](C)C(=O)N2", "note": "[HB1.6928.2.3] (H-CIEQSFTTLFACQTAAEIWRAFGYTVKIMVDNGNCRLHVC-OH; disulfide 1-40, 12-35; N-terminus and C-terminus assumed)", "values": [{"measurement": "protection after intravenous administration", "setting": "H1N1 CA09 virus [2]", "value": "little protection"}, {"measurement": "protection after repeated administration compared with no prior dosing", "setting": "H1N1 CA09 virus [2]", "value": "remains equally protective"}, {"measurement": "survival", "setting": "H1N1 CA09 virus [2]", "value": 100, "unit": "%"}, {"measurement": "reduction of binding activity after incubation at 80 °C", "setting": "[3]", "value": "no detectable loss of binding"}, {"measurement": "survival", "setting": "H1N1 CA09 virus [4]", "value": 100, "unit": "%"}, {"measurement": "weight loss", "setting": "H1N1 CA09 virus [4]", "value": "less than 10%"}, {"measurement": "EC50 for Cal09 (CA09), fold lower than FI6v3 or HB36.6", "setting": "[5]", "value": "more than 100 fold"}, {"measurement": "neutralization of CA09 virus", "setting": "[5]", "value": "strongly neutralized"}, {"measurement": "Tm", "setting": "[1]", "value": ">95", "unit": "°C"}, {"measurement": "neutralization of H3N2", "setting": "HK/X31 (H3N2), group 2", "value": "no neutralization"}, {"measurement": "neutralization of PR8 virus", "setting": "PR8 influenza virus", "value": "strongly neutralized"}, {"measurement": "efficiency (EC50) in inhibiting infection, compared with HB36.6 and FI6v3", "setting": "[6]", "value": "most efficiently inhibited infection"}]}
{"compound": "TMTSITTSPFAAEIAARIWAEFGYTVRIETRGKTVHVTVD [HB1.6811.3]", "values": [{"measurement": "Tm", "setting": "[1]", "value": 70, "unit": "°C"}]}
{"compound": "HB1.6928.2: chemically synthesized HA binder containing disulfides (CIEQSFTTLFACQTAAEIWRAFGYTVKIMVDNGNCRLHVC; disulfide (positions not given here))", "values": [{"measurement": "degradation by trypsin", "setting": "trypsin", "value": "no degradation"}]}
{"compound": "HB1.5702.3: chemically synthesized HA binder (TSGVRATSKFAALIAAEIAREFGYTVDVQEKNGEWRVVFD)", "values": [{"measurement": "trypsin concentration above which gel bands weaken (proteolytic degradation)", "setting": "trypsin", "value": "> 2.86", "unit": "µM"}]}
